≈ marks a conversion by molar mass, not a printed value.
Legend:
[1] = system: K562 cells; assay: CCK-8 cell viability assay, K562 cells; format: cell-based, human; settings: CCK-8, 48 h; for IC50: Homo sapiens, K562
Description: (§1) Human CML cell line K562 cells and human umbilical vein endothelial cells (HUVECs) were purchased from ATCC (Manassas, USA). Drug resistant K562 (K562R) cells were provided by the Chinese Academy of Medical Science Hematology Institute. The cells were cultured in RPMI-1640 medium containing 10% fetal bovine serum (FBS) in cell culture flasks under a humidified 5% CO2 and 95% air atmosphere at 37 °C. Bone marrow (BM) cells from mice or patients were cultured in DMEM/F12 medium supplemented with 20% FBS.
(§2) Cell viability was examined using the cell counting kit-8 (CCK-8) assay (YEASEN China). In brief, cells (1 × 10^4 cells/well) in confluent 96-well cell culture plates were treated with different concentrations of coumarin derivative (1, 5, 10, 25, 50, 100, 200, and 400 μg/mL) for 48 h. Then 10 μL CCK-8 reagents were added into every well for 2 h of incubation. Optical density (OD) was detected using the microplate reader (BioTek, Germany). The values were then fit into a non-linear regression curve and the IC50 was calculated using GraphPad Prism.

[2] = system: K562R cells; assay: CCK-8 cell viability assay, drug resistant K562 cells; format: cell-based, human; settings: CCK-8, 48 h; for IC50: Homo sapiens, K-562R
Description: as §1, §2

[3] = system: HUVECs; assay: CCK-8 cell viability assay (cytotoxicity), HUVECs; format: cell-based, human; settings: CCK-8, 48 h; for IC50: Homo sapiens, HUVEC
Description: as §1, §2

[4] = system: CD34+ hematopoietic stem and progenitor cells (HSPCs); assay: CCK-8 cell viability assay (cytotoxicity), HSPCs; format: cell-based, human; settings: CCK-8, 48 h; for IC50: Homo sapiens
Text: (§3) Human CD34^+ HSCPs were obtained from the specimens of consenting healthy donors or CML patients at Xijing Hospital, and purified using Human Whole Blood CD34 Positive Selection Kit II (StemCell Technologies, China). Briefly, the human bone marrow was homogenized, and the top layering with Ficoll-Paque (GE Healthcare, USA) interphase containing immune cells and CD34^+ HSPCs was collected and washed with PBS, then CD34^+ HSPCs were purified according to the protocol of EasySep human CD34 positive selection kit (StemCell Technologies, China). CD34^+ cells were cultured in StemSpan-ACF medium II supplemented with 50 ng/mL human stem cell factor, 10 ng/mL thrombopoietin, 20 ng/mL FMS-related tyrosine kinase 3 ligand, 20 ng/mL interleukin-6 and 1% penicillin-streptomycin solution.
as §2

[5] = system: K562 cells; assay: Annexin V-FITC/PI flow cytometry, apoptosis of K562 cells; format: cell-based, human; settings: 50, 100, 200 μg/mL, 24 h, vs vehicle
Description: (§4) Apoptotic cells were quantified with an FITC Annexin V Apoptosis detection kit (Becton Dickinson Biosciences, USA) according to manufacturer’s protocol. Briefly, cells at 1 × 10^5 cells/mL were incubated with various concentrations (50, 100 and 200 μg/mL) of compound DBH2 for 24 h at 37 °C. Cells were harvested and re-suspended in the binding buffer, then stained with 5 μL Annexin V-FITC and 5 μL propidium iodide (PI) for 15 min at room temperature in the dark. The apoptotic index was immediately determined by FACSCalibur Flow Cytometer (Becton Dickinson Biosciences, CA). For the cell cycle, K562 cells were harvested and fixed in 75% ethanol overnight at 4 °C, then re-suspended in pre-cooling PBS containing 0.1 mg/mL RNase and 0.02 mg/mL PI for 30 min at 37 °C. After the treatment of compound DBH2 or 1% DMSO as vehicle control, the cell cycle was analyzed using the flow cytometry and Cell Quest software (BD Biosciences, USA).

[6] = system: K562 cells; assay: Cell cycle distribution by flow cytometry, K562 cells; format: cell-based, human; settings: K562, 100 μg/mL; vehicle 33.9%
Description: as §4

[7] = system: K562 cells; assay: Transmission electron microscopy of K562 cells; format: cell-based, human; settings: K562, 100 μg/mL, post 24 h
Description: CML cells were seeded and grown at […] in three flasks.

[8] = system: bone marrow cells from SCL-tTA-BCR/ABL transgenic model mice; assay: Annexin V/PI apoptosis, bone marrow cells from SCL-tTA-BCR/ABL transgenic model mice; format: cell-based, mouse; settings: 50, 100, 200 μg/mL
Description: as §1
as §4, with “For the cell cycle, K562 cells were harvested and fixed in 75% ethanol overnight at 4 °C, then re-suspended in pre-cooling PBS containing 0.1 mg/mL RNase and 0.02 mg/mL PI for 30 min at 37 °C.” left out, “USA). […]” for “USA).”

[9] = system: bone marrow cells of recipients (BCR/ABL model mice); assay: Annexin V/PI apoptosis, bone marrow cells of BMT recipients, DBH2 with or without imatinib; format: cell-based, mouse; settings: DBH2 at various concentrations with or without 1 μM imatinib
Description: (§5) The SCL-tTA-BCR/ABL transgenic model mice were used as donor, and sub-lethally irradiated (850 rad) wild type mice were use as receiver, once the bone marrow transplantation (BMT) was performed from the donor mice to the recipient mice, the CML-like model mice was established. […] Caspase-3 knock-out mice were kindly gifted from the lab of Professor Hua Han, the Fourth Military Medical University.

[10] = system: CML-like model mice (recipients of SCL-tTA-BCR/ABL bone marrow); assay: Survival of CML-like model mice after bone marrow transplantation; format: in vivo, mouse; settings: DBH2 100 mg/kg, 32 days with two-day interval post-BMT, intragastric
Description: as §5

[11] = system: bone marrow cells from CML patients; assay: Annexin V/PI apoptosis, bone marrow cells from CML patients; format: cell-based, human
Description: as §1
The ages of three male CML patients […], all of them were newly diagnosed chronic phase, and before starting TKI therapy. Informed consent was obtained from all participants. This study adhered to the World Medical Association’s Declaration of Helsinki and its amendments for Ethical Human Research including confidentiality, privacy, and data management.
(§6) Apoptotic cells were quantified with an FITC Annexin V Apoptosis detection kit (Becton Dickinson Biosciences, USA) according to manufacturer’s protocol. […] The apoptotic index was immediately determined by FACSCalibur Flow Cytometer (Becton Dickinson Biosciences, CA). […] After the treatment of compound DBH2 or 1% DMSO as vehicle control, the cell cycle was analyzed using the flow cytometry and Cell Quest software (BD Biosciences, USA).

[12] = system: CD34+ LSCs from CML patients; assay: Apoptosis of CD34+ LSCs from CML patients; format: cell-based, human; settings: 100 μg/mL, 24 h
Text: as §3
as §6, with “protocol. Briefly, cells at 1 × 10^5 cells/mL were incubated with various concentrations (50, 100 and 200 μg/mL) of compound DBH2 for 24 h at 37 °C.” for “protocol.”

[13] = system: STAT3; assay: Quantitative RT-PCR, STAT3 mRNA in K562 cells; format: cell-based, human; settings: K562, 50, 100, 200 μg/mL
Description: (§7) RNA was extracted from cells using an RNA extraction kit according to the manufacturer protocol. After reverse transcription, the real-time PCR was performed for three independent experiments with a 7300 real-time PCR system (Applied Biosystems, USA) using SYBR Premix ExTaq (Takara, China). The relative expression of genes was calculated by the 2^-△△Ct method, with normalization to GAPDH levels. Amplified products were visualized with an Alpha Imager 2200 digital imaging system (Alpha Innotech, USA). The primers (forward and backward) used were depicted in Table S1.

[14] = system: STAT5; assay: Quantitative RT-PCR, STAT5 mRNA in K562 cells; format: cell-based, human; settings: K562, 50, 100, 200 μg/mL
Description: as §7

[15] = system: bone marrow myeloid cells from wild type mice; assay: Annexin V/PI apoptosis, bone marrow myeloid cells from WT mice (Fig 5); format: cell-based, mouse; settings: WT, 50, 100, 200 μg/mL, 24 h
Description: as §4
(§8) The SCL-tTA-BCR/ABL transgenic model mice were used as donor, and sub-lethally irradiated (850 rad) wild type mice were use as receiver, once the bone marrow transplantation (BMT) was performed from the donor mice to the recipient mice, the CML-like model mice was established. After 8 weeks, the bone marrow reconstitution was confirmed, and the effect of treatments to the survival rates of recipient mice was observed. […]

[16] = system: bone marrow myeloid cells from caspase-3 gene knock-out mice; assay: Annexin V/PI apoptosis, bone marrow myeloid cells from caspase-3 knock-out mice; format: cell-based, mouse
Description: as §4, §8

[17] = system: PARP1; assay: Western blot, PARP1 protein in K562 cells; format: cell-based, human; settings: K562, 100 and 200 μg/mL, vs untreated control
Description: (§9) Cells were washed with Tris-buffered saline (TBS) and lysed by adding 100 μL of RIPA Lysis Buffer System containing protease inhibitors. Then, cell extraction was subjected to gel electrophoresis and transferred onto a polyvinylidene difluoride membrane (Millipore, Germany). After blocking with 3% BSA in TBS for 2 h, the membrane was probed with primary antibodies overnight at 4 °C, the antibody against PARP1 (Proteintech, USA) or ROCK1 proteins (Proteintech, USA) was diluted at 1:1000, and the antibody for GAPDH (Abcam, UK) was diluted at 1:1000. After secondary antibodies labeled with infrared dyes were added, the signals were visualized using the Odyssey Infrared Imaging System (Biosciences, USA).

[18] = system: ROCK1; assay: Western blot, ROCK1 protein in K562 cells; format: cell-based, human; settings: K562, 50, 100, 200 μg/mL
Description: as §9

[19] = system: human cervical cancer HeLa cells; parameters: method as in PMID 18210747; settings: G0/G1 arrest and apoptosis; cited from earlier work

Structure (SMILES) | IC50 [1] [µg/mL] | IC50 [2] [µg/mL] | IC50 [3] [µg/mL] | IC50 [4] [µg/mL] | further results
O=c1oc2ccccc2c(O)c1C(c1cc(C(F)(F)F)cc(C(F)(F)F)c1)c1c(O)c2ccccc2oc1=O [DBH6, 3,3′-(3,5-ditrifluoromethylbenzylidene)-bis-(4-hydroxycoum-arin)] | – | – | – | – | IC50, K562 cells [1]: 31.32 µg/mL (≈ 57.1 µM); IC50, K562 R cells [2]: 35.68 µg/mL (≈ 65.1 µM); IC50, HUVECs [3]: 72.42 µg/mL (≈ 132 µM); IC50, HSPCs [4]: 67.75 µg/mL (≈ 124 µM)
O=c1oc2ccccc2c(O)c1C(c1cc(F)cc(F)c1)c1c(O)c2ccccc2oc1=O [DBH2, 3,3′-(3,5-difluorobenzylidene)-bis-(4-hydroxycoumarin)] | 36.3 (≈ 81 µM) | 38.8 (≈ 86.5 µM) | 232 (≈ 518 µM) | 225 (≈ 502 µM) | apoptosis in CML cells (K562) [5]: trigger significant apoptosis in CML cells with concentration-dependent responses; percentage of cells in the G2/M phase [6]: 41.3%; morphological observation (TEM) [7]: typical apoptotic-body in nuclear appeared; apoptosis in bone marrow cells from CML model mice compared to WT mice [8]: induce the remarkable apoptosis; number of apoptotic cells [9]: ascendant number of apoptotic cells; survival of treated mice [10]: remarkably prolonged about two times; apoptosis of bone marrow cells from CML patients ([11]; 50, 100 and 200 μg/mL): promoted the apoptosis of bone marrow cells from CML patients in dose-dependent manner; induced apoptosis in bone marrow cells from CML patients compared to its effects on CD34+ LSC ([11]; bone marrow cells vs CD34+ LSC): almost twice fold; CD34+ LSCs developed into the apoptotic process [12]: more than twice fold; expression of STAT3 mRNA [13]: inhibit the expression of STAT3 and STAT5 in a dose-dependent manner; expression of STAT5 mRNA [14]: inhibit the expression of STAT3 and STAT5 in a dose-dependent manner; Annexin V positive cells [15]: increasing number of Annexin V positive cells; DBH2-induced apoptosis compared to the cells from wild type mice ([16]; caspase-3 knock-out vs WT): significant less; Annexin V positive cells ([16]; caspase-3 knock-out, 50, 100, 200 μg/mL, 24 h): increasing number of Annexin V positive cells; expression of PARP1 protein [17]: up-regulate the expression of PARP1 significantly; expression of ROCK1 protein [18]: up-regulated the expression of ROCK1 in dose-dependent manner
O=c1oc2ccccc2c(O)c1C(c1cc(Br)cc(Br)c1)c1c(O)c2ccccc2oc1=O [DBH4, 3,3′-(3,5-dibromobenzylidene)-bis-(4-hydroxycoumarin)] | 36.5 (≈ 64.1 µM) | 39.9 (≈ 69.9 µM) | 88.7 (≈ 155 µM) | 83.1 (≈ 146 µM) | –
O=c1oc2ccccc2c(O)c1C(c1ccccc1)c1c(O)c2ccccc2oc1=O [DBH1, 3,3′-benzylidene-bis-(4-hydroxycoumarin)] | 31.3 (≈ 75.8 µM) | 33.4 (≈ 81 µM) | 85.7 (≈ 208 µM) | 76.3 (≈ 185 µM) | –
O=c1oc2ccccc2c(O)c1C(c1cc(Cl)cc(Cl)c1)c1c(O)c2ccccc2oc1=O [DBH3, 3,3′-(3,5-dichlorobenzylidene)-bis-(4-hydroxycoumarin)] | 36.5 (≈ 75.8 µM) | 45.7 (≈ 95 µM) | 52.3 (≈ 109 µM) | 72.4 (≈ 150 µM) | –
O=c1ccc2ccccc2o1 [coumarin] | – | – | – | – | IC50 [19]: 54.2 µM
COc1cc(OC)cc(C(c2c(O)c3ccccc3oc2=O)c2c(O)c3ccccc3oc2=O)c1 [DBH5, 3,3′-(3,5-dimethoxybenzylidene)-bis-(4-hydroxycoumarin)] | 30.4 (≈ 64.5 µM) | 34.4 (≈ 72.7 µM) | 50.3 (≈ 106 µM) | 46.4 (≈ 98.2 µM) | –
COc1cccc2c1C(=O)c1c(O)c3c(c(O)c1C2=O)C[C@@](O)(C(=O)CO)C[C@@H]3O[C@H]1C[C@H](N)[C@H](O)[C@H](C)O1 [Doxorubicin, reference compound] | 16.4 (≈ 30.2 µM) | 24.1 (≈ 44.4 µM) | 8.76 (≈ 16.1 µM) | 8.04 (≈ 14.8 µM) | –

Reference: PMC10201669, “A novel coumarin derivative DBH2 inhibits proliferation and induces apoptosis of chronic myeloid leukemia cells” (Genes & Diseases, 2022)
